Data from publication PMC8039949, “A novel small-molecule PROTAC selectively promotes tau clearance to improve cognitive functions in Alzheimer-like models” (Theranostics, 2021).

Assays:
hTau transgenic mice = assay: Multiple-doses subcutaneous administration in hTau transgenic mice, behavior and dendritic morphology; type: in vivo, mouse; details: 12 m-old hTau transgenic mice, subcutaneous 3 mg/kg once every 6 days, 5 times
Procedure: The Open field (OF) test was consisted of a 5 min session in a quadrate chamber (white opaque plastic). The chamber was divided into 16 square regions, a central field (center 4 square regions) and a periphery field. Each mouse was placed in the same position at the start of the test. Behaviors were recorded and analyzed by the video tracking system (Chengdu Taimeng Software Co., Ltd, China).
For novel object recognition (NOR) test, the mice were habituated to a quadrate chamber (white opaque plastic) for 5 min without objects 24 h prior to the test. The chamber was cleaned with 75% ethanol between each habituation period. The day after the mice re-entered the chamber from the same starting point and were given 10 min to familiarize themselves with the object A and object B. After each period the chamber and objects were cleaned with 75% ethanol. The next day after the familiarization period, object B was replaced with noval object C, and the mice were given 10 min to explore both objects. The exploring time in object A (TA) and C (TC) was recorded using the video tracking system. The discrimination index was calculated by (TC-TA)/(TA+TC).
The Elevated plus maze (EPM) test was performed as follows: mice were placed at the junction of the four arms of the maze (white opaque plastic), and started the test from facing an open arm. The chambers were cleaned with 75% ethanol before the next mouse was trained. The entries and duration time in each arm were recorded for 5 min by the video tracking system (Chengdu Taimeng Software Co., Ltd, China). An increase in open arm activity (duration and/or entries) reflects anti-anxiety behavior.
The Morris water maze (MWM) test was conducted to assess the spatial learning and memory. The maze was filled with water and divided into 4 quadrants with a platform placed in one quadrant. The mice were trained to find the hidden platform for 6 consecutive days, and underwent […] training trials (once per quadrant) per day from 14:00 to 20:00 pm. In each training trial, the mouse started from one of four quadrants facing the wall of the pool and the trial ended when the animal climbed on the platform. […] The spatial memory was tested 1 d after the last training by removed the platform. The longer a mouse stayed in the previous platform-located quadrant, the better it scored the spatial memory. A video camera, fixed to the ceiling 1.5 m from the water surface, was used to record the swimming path and the time for mice to find the platform (latency) or to pass through the previous platform-located quadrant each day. The camera was connected to a digital-tracking device attached to an IBM computer (Armonk, NY).
For fear conditioning (FC) test, the mice were placed into a square chamber with a grid floor. On the first day (day 1), each mouse was habituated to the chamber for 3 min, and then a foot shock (0.9 mA, 3 s) was delivered. Three sequential foot shocks at 3 min intervals were applied. Then the mice were returned to their home cages. On the next day (day 2), the mice were exposed to the same chamber without any stimulus for 3 min. The contextual conditioning was assessed by recording freezing behavior during the 3 min exposure. Freezing time during the 3 min was recorded for assessment of memory.
Golgi staining was performed by using a Rapid GolgiStain Kit (FD neurotechnologies, PK401) according to the manufacturer's instructions. Briefly, the animals were sacrificed and perfused for 5 min with PBS. All procedures were performed under dark condition. Brains were dissected out and immersed in impregnation solution (equal volumes of Solutions A and B, containing mercuric chloride, potassium dichromate, and potassium chromate, mixed for 24 h in advance), and stored at room temperature. Impregnation solution was replaced after 24 h. After 4 weeks, brains were transferred to Solution C and stored at 4 °C for 72 h, with the solution replaced after 24 h. […]

tau [1] = biological target: T1, tau (Mus musculus, UniProt P10637); assay: Intragastrical gavage in wild-type mice, brain tau by Western blotting; type: in vivo; details: 4 m-old wild-type mice; intragastrical gavage 20 mg/kg; 48 h
T1 sequence (P10637 114-430 isoform P10637-2 limits assumed): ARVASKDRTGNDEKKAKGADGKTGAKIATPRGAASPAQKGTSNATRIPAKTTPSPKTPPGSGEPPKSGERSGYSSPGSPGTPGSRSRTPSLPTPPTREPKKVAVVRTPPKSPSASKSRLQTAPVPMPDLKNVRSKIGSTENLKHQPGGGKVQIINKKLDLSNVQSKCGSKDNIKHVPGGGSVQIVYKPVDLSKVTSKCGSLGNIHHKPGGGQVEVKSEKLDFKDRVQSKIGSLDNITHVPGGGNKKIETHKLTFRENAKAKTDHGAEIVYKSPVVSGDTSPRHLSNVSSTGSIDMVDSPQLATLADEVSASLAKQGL
Procedure: The cells or hippocampal/cortex tissues were homogenized for ~ 30 min on ice in buffer [50 mM Tris·HCl pH 7.4-7.5, 100 mM NaCl, 1% (vol/vol) Triton X-100, 5 mM EDTA, 1:100 PMSF, 1:1,000 protease inhibitor cocktail containing 4-(2-Aminoethyl)-benzenesulfonyl fluoride hydrochloride, aprotinin, bestatin, leupeptin, E-64, and pepstatin A stored at 4 °C], and then centrifuged at 12,000 × g at 4 °C for 20 min. The supernatant was collected and the protein levels were analyzed using bicinchoninic acid (BCA, KF016, Sigma-Aldrich) by following the manufacturer's instruction (served as soluble protein). The pellet was further incubated with 8% (wt/vol) SDS buffer at 4 °C and then treated by ultrasonic wave to reach a complete resuspension. The suspension was spun (18,000 × g, 4 °C for 20 min) and the supernatant collected (served as insoluble fraction). The supernatant of different faction was respectively mixed with loading buffer (3:1, vol/vol) containing 200 mM Tris-HCl, pH 6.8, 8% SDS, 40% glycerol, and boiled for 10 min. For Western blotting, the proteins were separated by 10% SDS-polyacrylamide gel via electrophoresis for about 2 h and transferred to nitrocellulose membranes ([…]) for 1 h. […] Immunoreactive bands were quantitatively analyzed by Image J2x software.

tau [2] = biological target: T1, tau; assay: Single-dose subcutaneous administration in wild-type mice, brain tau by Western blotting; type: in vivo
Procedure: For brain surgery and stereotaxic cerebroventricular drug delivery, the mice were placed in a stereotaxic apparatus and anesthetized with 2% isoflurane (RWD Life Science, R510-22) through a nose cone (300-500 mL/min, RWD Life Science, China, R500). The scalp was incised along the midline between the ears after the mice were sterilized with iodophors and 75% (vol/vol) alcohol. The holes were drilled stereotaxically in the skull at a cerebroventricular location (posterior 0.22 mm, lateral 0.9 mm, and ventral 2.3 mm relative to bregma). Using a microinjection system (Shenzhen RWD Life Technology Co., Ltd; RWD 69100), C004019 (5 μL, 200 μM) was infused at a rate of 0.5 μL/min. The needle was kept in place for 10 min before withdrawal. After the skin was sutured, the mice were placed on a heater for analepsia. For subcutaneous injection, C004019 was diluted with 20% HP-β-CD and injected under the skin on the back neck to reach a final concentration of 3 mg/kg (low dose) or 15 mg/kg (high dose).
The cells or hippocampal/cortex tissues were homogenized for ~ 30 min on ice in buffer [50 mM Tris·HCl pH 7.4-7.5, 100 mM NaCl, 1% (vol/vol) Triton X-100, 5 mM EDTA, 1:100 PMSF, 1:1,000 protease inhibitor cocktail containing 4-(2-Aminoethyl)-benzenesulfonyl fluoride hydrochloride, aprotinin, bestatin, leupeptin, E-64, and pepstatin A stored at 4 °C], and then centrifuged at 12,000 × g at 4 °C for 20 min. The supernatant was collected and the protein levels were analyzed using bicinchoninic acid (BCA, KF016, Sigma-Aldrich) by following the manufacturer's instruction (served as soluble protein). The pellet was further incubated with 8% (wt/vol) SDS buffer at 4 °C and then treated by ultrasonic wave to reach a complete resuspension. The suspension was spun (18,000 × g, 4 °C for 20 min) and the supernatant collected (served as insoluble fraction). The supernatant of different faction was respectively mixed with loading buffer (3:1, vol/vol) containing 200 mM Tris-HCl, pH 6.8, 8% SDS, 40% glycerol, and boiled for 10 min. For Western blotting, the proteins were separated by 10% SDS-polyacrylamide gel via electrophoresis for about 2 h and transferred to nitrocellulose membranes ([…]) for 1 h. The membranes were blocked with 5% (wt/vol) BSA dissolved in PBS for 1 h and incubated with primary antibodies overnight at 4 °C in cold room. Membranes were then incubated with a secondary antibody for 1 h at room temperature and visualized using the ECL Imaging System (610007-8Q, Clinx Science Instruments Co., Ltd). Immunoreactive bands were quantitatively analyzed by Image J2x software.

duration time in the open arm, elevated plus maze (EPM) (hTau transgenic mice): no significant changes were detected
free movement in open field (OF) test (hTau transgenic mice): no significant changes were detected
duration of tau reduction in the brain (tau [2]; 4 m-old wild-type mice, single-dose subcutaneous 3 mg/kg): sustained tau reduction till 8 days
tau level in hippocampus and cortex (tau [2]; 4 m-old wild-type mice, subcutaneous 15 mg/kg, 24 h and 48 h): Significant tau reduction
tau reduction (tau [2]; wild-type mice, 8 days after one treatment): 50%
SMILES: CC(=O)N1CCCN(c2nc(NCCc3cccs3)nc(N(C)CC(=O)NCCOCCOCCOCC(=O)N[C@H](C(=O)N3C[C@H](O)C[C@H]3C(=O)NCc3ccc(-c4scnc4C)cc3)C(C)(C)C)n2)CC1 [C004019]
fear condition (FC) test, freezing index (hTau transgenic mice): improved freezing index
novel object recognition (NOR) test (hTau transgenic mice): increased time exploring new object
neurite arborization and spine density in hippocampal DG (hTau transgenic mice; Golgi-cox staining and Sholl analysis): significantly increased
Morris water maze (MWM) test, latency (hTau transgenic mice; learning trial and probe trial): decreased latency to find the platform
tau level in hippocampus and cortex (tau [1]): no significant tau reduction was detected
tau level in hippocampus and cortex (tau [2]; 4 m-old wild-type mice, subcutaneous 3 mg/kg, 24 h, compared with 15 mg/kg): much more significant tau reduction than that of high dose
